Laboratory results taken from ChEMBL document CHEMBL4507279, “Data for DCP probe BI-9627” (2021).

Columns and labels:
[1] = target: Citron Rho-interacting kinase (Homo sapiens) (UniProt O14578); conditions: Compound concentration 1000.0 nM
[2] = target: Serine/threonine-protein kinase Nek5 (Homo sapiens) (UniProt Q6P3R8); conditions: Compound concentration 1000.0 nM
[3] = target: Mitogen-activated protein kinase 13 (Homo sapiens) (UniProt O15264); conditions: Compound concentration 1000.0 nM
[4] = tested on: Epidermal growth factor receptor (Homo sapiens), P00533 [T790M]; conditions: Compound concentration 1000.0 nM
[5] = target: Vascular endothelial growth factor receptor 3 (Homo sapiens) (UniProt P35916); conditions: Compound concentration 1000.0 nM
[6] = tested on: Phosphatidylinositol 4,5-bisphosphate 3-kinase catalytic subunit alpha isoform (Homo sapiens), P42336 [E545K]; conditions: Compound concentration 1000.0 nM
Phosphatidylinositol 4,5-bisphosphate 3-kinase catalytic subunit alpha isoform (Homo sapiens), P42336 [E545K], sequence (P42336 whole entry E545K, canonical isoform): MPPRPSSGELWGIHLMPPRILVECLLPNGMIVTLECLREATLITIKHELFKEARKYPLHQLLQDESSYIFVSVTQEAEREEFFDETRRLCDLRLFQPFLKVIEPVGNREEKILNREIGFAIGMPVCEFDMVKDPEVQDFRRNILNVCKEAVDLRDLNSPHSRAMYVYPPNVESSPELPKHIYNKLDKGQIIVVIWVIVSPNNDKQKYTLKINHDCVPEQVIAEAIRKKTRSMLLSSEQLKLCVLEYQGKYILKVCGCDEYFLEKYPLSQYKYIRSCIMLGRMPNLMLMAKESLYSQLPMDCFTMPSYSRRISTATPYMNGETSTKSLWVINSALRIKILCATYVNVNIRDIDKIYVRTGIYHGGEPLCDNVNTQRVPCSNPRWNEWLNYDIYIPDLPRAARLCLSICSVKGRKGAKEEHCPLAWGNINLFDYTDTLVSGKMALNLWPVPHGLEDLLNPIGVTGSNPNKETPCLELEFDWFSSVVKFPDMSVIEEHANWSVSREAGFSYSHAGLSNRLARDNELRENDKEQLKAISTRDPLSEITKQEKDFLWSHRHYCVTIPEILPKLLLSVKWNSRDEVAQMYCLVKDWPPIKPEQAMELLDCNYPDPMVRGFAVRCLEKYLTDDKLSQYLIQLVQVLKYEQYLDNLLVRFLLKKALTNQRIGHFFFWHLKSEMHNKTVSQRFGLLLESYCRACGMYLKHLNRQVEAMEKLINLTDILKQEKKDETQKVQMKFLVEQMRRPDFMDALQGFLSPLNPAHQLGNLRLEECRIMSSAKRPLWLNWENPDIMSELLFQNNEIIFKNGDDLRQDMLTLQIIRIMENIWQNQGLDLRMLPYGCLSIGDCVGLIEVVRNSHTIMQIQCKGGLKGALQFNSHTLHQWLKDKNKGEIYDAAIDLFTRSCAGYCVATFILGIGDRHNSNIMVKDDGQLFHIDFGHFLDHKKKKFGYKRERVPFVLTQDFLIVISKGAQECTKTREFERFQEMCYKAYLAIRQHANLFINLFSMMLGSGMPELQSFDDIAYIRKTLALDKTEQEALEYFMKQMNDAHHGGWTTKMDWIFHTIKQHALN

[7] = target: Serine/threonine-protein kinase STK11 (Homo sapiens) (UniProt Q15831); conditions: Compound concentration 1000.0 nM
[8] = target: Serine/threonine-protein kinase RIO3 (Homo sapiens) (UniProt O14730); conditions: Compound concentration 1000.0 nM
[9] = target: Mitogen-activated protein kinase kinase kinase 15 (Homo sapiens) (UniProt Q6ZN16); conditions: Compound concentration 1000.0 nM
[10] = tested on: Receptor-type tyrosine-protein kinase FLT3 (Homo sapiens), P36888 [D835Y]; conditions: Compound concentration 1000.0 nM
[11] = target: Tyrosine-protein kinase Lyn (Homo sapiens) (UniProt P07948); conditions: Compound concentration 1000.0 nM
[12] = target: Sodium/hydrogen exchanger 2 (Homo sapiens, UniProt Q9UBY0); assay: pHi change assay with SLC9A2
[13] = target: Cyclin-dependent kinase 11B (Homo sapiens) (UniProt P21127); conditions: Compound concentration 1000.0 nM
[14] = target: Serine/threonine-protein kinase 17A (Homo sapiens) (UniProt Q9UEE5); conditions: Compound concentration 1000.0 nM
Serine/threonine-protein kinase 17A (Homo sapiens), sequence (Q9UEE5 whole entry): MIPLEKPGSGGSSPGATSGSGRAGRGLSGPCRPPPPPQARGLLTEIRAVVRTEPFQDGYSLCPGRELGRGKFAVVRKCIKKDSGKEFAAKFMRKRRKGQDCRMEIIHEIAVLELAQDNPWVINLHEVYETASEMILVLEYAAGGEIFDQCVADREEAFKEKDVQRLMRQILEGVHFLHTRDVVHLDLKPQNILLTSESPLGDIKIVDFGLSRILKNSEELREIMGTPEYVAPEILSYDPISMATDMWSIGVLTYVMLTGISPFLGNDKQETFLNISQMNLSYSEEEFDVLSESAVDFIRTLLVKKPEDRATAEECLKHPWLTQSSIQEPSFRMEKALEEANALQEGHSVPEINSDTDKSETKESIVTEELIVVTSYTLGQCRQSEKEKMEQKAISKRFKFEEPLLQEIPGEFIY

[15] = target: Inhibitor of nuclear factor kappa-B kinase subunit beta (Homo sapiens) (UniProt O14920); conditions: Compound concentration 1000.0 nM
[16] = target: Bone morphogenetic protein receptor type-2 (Homo sapiens) (UniProt Q13873); conditions: Compound concentration 1000.0 nM
[17] = target: Dual specificity mitogen-activated protein kinase kinase 2 (Homo sapiens) (UniProt P36507); conditions: Compound concentration 1000.0 nM
[18] = target: GABA-A receptor; anion channel (Rattus norvegicus) (UniProt O09028+P15431+P18506+P18508+P19969+P20236+P23574+P23576+P28471+P28473+P30191+P62813+P63079+P63138+Q91ZM7+Q9ES14); conditions: Compound concentration 10.0 uM
[19] = target: Tyrosine-protein kinase Blk (Homo sapiens) (UniProt P51451); conditions: Compound concentration 1000.0 nM
[20] = target: Tyrosine-protein kinase Fyn (Homo sapiens) (UniProt P06241); conditions: Compound concentration 1000.0 nM
Tyrosine-protein kinase Fyn (Homo sapiens), sequence (P06241 2-537 limits assumed): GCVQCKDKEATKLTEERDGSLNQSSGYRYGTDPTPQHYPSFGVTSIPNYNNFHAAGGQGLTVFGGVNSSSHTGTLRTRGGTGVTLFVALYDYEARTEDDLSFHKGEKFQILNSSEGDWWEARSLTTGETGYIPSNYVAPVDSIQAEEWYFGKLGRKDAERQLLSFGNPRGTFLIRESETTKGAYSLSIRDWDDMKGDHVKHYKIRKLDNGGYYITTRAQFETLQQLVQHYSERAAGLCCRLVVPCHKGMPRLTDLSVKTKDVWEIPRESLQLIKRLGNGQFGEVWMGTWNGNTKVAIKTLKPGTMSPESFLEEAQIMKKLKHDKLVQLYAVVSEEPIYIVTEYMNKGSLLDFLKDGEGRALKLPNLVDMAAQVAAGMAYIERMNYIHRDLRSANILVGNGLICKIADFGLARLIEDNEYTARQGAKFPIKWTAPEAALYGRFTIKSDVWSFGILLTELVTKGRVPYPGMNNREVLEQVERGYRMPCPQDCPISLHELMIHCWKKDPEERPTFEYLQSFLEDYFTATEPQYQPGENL

[21] = target: Myosin light chain kinase family member 4 (Homo sapiens) (UniProt Q86YV6); conditions: Compound concentration 1000.0 nM
[22] = target: Casein kinase I isoform alpha (Homo sapiens) (UniProt P48729); conditions: Compound concentration 1000.0 nM
[23] = target: 5'-AMP-activated protein kinase catalytic subunit alpha-2 (Homo sapiens) (UniProt P54646); conditions: Compound concentration 1000.0 nM
5'-AMP-activated protein kinase catalytic subunit alpha-2 (Homo sapiens), sequence (P54646 whole entry, looked up): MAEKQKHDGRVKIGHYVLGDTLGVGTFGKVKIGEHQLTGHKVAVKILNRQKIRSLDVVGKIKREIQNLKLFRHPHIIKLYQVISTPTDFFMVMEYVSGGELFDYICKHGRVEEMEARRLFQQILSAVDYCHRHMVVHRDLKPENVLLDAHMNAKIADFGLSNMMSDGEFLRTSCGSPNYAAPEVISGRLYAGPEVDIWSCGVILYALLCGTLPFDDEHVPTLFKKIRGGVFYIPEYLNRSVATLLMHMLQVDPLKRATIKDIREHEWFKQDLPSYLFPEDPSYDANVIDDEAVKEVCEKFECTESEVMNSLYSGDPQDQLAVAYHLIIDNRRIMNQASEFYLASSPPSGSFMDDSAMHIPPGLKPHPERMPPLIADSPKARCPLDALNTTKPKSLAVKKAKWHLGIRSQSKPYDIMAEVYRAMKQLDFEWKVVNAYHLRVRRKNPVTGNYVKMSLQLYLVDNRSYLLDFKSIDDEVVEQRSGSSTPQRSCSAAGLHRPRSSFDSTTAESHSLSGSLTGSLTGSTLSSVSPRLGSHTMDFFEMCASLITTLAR

[24] = target: Serine/threonine-protein kinase PAK 4 (Homo sapiens) (UniProt O96013); conditions: Compound concentration 1000.0 nM
[25] = target: Histamine H1 receptor (Homo sapiens) (UniProt P35367); conditions: Compound concentration 10.0 uM
[26] = target: 5-hydroxytryptamine receptor 1D (Homo sapiens) (UniProt P28221); conditions: Compound concentration 10.0 uM
[27] = target: Cyclin-dependent kinase 18 (Homo sapiens) (UniProt Q07002); conditions: Compound concentration 1000.0 nM
[28] = target: Wee1-like protein kinase (Homo sapiens) (UniProt P30291); conditions: Compound concentration 1000.0 nM
[29] = target: MAP kinase-interacting serine/threonine-protein kinase 2 (Homo sapiens) (UniProt Q9HBH9); conditions: Compound concentration 1000.0 nM
[30] = target: Serine/threonine-protein kinase PLK2 (Homo sapiens) (UniProt Q9NYY3); conditions: Compound concentration 1000.0 nM
[31] = target: Dual specificity testis-specific protein kinase 1 (Homo sapiens) (UniProt Q15569); conditions: Compound concentration 1000.0 nM
Dual specificity testis-specific protein kinase 1 (Homo sapiens), sequence (Q15569 whole entry, looked up): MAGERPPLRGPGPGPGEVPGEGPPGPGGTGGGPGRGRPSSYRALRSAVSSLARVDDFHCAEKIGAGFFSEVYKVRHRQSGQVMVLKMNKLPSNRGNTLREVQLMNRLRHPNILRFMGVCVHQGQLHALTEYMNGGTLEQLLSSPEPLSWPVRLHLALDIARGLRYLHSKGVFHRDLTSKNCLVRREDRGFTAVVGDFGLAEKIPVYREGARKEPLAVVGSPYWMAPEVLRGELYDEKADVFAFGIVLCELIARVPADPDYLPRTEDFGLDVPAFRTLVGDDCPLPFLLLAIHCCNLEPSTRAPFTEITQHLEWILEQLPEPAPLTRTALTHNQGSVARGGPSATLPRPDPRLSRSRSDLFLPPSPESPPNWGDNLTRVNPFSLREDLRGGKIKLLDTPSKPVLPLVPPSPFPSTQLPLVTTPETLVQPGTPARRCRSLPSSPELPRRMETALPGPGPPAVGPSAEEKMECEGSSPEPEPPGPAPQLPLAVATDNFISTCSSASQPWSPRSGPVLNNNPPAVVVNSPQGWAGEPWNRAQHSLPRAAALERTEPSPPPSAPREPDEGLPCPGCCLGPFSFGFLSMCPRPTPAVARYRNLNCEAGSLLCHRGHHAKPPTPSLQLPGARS

[32] = target: Mitogen-activated protein kinase 7 (Homo sapiens) (UniProt Q13164); conditions: Compound concentration 1000.0 nM
[33] = target: Serine/threonine-protein kinase OSR1 (Homo sapiens) (UniProt O95747); conditions: Compound concentration 1000.0 nM
[34] = target: Serine/threonine-protein kinase Nek6 (Homo sapiens) (UniProt Q9HC98); conditions: Compound concentration 1000.0 nM
[35] = target: Phosphatidylinositol 4-phosphate 5-kinase type-1 alpha (Homo sapiens) (UniProt Q99755); conditions: Compound concentration 1000.0 nM
[36] = target: Cyclin-dependent kinase-like 1 (Homo sapiens) (UniProt Q00532); conditions: Compound concentration 1000.0 nM
Cyclin-dependent kinase-like 1 (Homo sapiens), sequence (Q00532 whole entry): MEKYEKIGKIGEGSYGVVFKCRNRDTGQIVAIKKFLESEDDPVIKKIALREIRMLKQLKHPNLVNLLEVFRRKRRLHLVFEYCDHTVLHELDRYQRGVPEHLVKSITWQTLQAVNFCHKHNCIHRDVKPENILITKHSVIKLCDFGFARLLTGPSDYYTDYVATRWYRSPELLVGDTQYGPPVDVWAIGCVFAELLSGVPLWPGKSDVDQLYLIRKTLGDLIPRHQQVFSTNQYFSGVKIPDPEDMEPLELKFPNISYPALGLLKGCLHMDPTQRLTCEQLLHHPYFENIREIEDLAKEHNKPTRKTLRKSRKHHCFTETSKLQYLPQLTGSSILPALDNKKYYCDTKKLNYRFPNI

[37] = target: Calcium/calmodulin-dependent protein kinase type 1D (Homo sapiens) (UniProt Q8IU85); conditions: Compound concentration 1000.0 nM
[38] = target: 5'-AMP-activated protein kinase catalytic subunit alpha-1 (Homo sapiens) (UniProt Q13131); conditions: Compound concentration 1000.0 nM
5'-AMP-activated protein kinase catalytic subunit alpha-1 (Homo sapiens), sequence (Q13131 whole entry, looked up): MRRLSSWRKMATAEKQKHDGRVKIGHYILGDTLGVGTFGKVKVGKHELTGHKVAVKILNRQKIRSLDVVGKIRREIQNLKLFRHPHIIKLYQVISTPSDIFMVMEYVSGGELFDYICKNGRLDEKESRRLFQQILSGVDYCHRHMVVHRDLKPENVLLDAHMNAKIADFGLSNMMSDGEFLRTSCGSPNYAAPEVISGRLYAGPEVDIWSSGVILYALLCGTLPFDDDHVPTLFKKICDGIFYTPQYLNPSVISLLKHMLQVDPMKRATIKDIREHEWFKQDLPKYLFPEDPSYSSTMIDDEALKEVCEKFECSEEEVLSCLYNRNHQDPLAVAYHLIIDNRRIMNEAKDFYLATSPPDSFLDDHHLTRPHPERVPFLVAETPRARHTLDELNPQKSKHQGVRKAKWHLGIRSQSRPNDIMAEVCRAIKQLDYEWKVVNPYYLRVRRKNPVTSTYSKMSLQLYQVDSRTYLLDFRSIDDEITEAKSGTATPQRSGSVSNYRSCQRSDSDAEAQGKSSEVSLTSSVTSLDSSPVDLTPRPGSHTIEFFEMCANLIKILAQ

[39] = tested on: Mast/stem cell growth factor receptor Kit (Homo sapiens), P10721 [D816H]; conditions: Compound concentration 1000.0 nM
[40] = target: Muscarinic acetylcholine receptor M5 (Homo sapiens) (UniProt P08912); conditions: Compound concentration 10.0 uM
[41] = target: Mitogen-activated protein kinase kinase kinase kinase 1 (Homo sapiens) (UniProt Q92918); conditions: Compound concentration 1000.0 nM
Mitogen-activated protein kinase kinase kinase kinase 1 (Homo sapiens), sequence (Q92918 whole entry, looked up): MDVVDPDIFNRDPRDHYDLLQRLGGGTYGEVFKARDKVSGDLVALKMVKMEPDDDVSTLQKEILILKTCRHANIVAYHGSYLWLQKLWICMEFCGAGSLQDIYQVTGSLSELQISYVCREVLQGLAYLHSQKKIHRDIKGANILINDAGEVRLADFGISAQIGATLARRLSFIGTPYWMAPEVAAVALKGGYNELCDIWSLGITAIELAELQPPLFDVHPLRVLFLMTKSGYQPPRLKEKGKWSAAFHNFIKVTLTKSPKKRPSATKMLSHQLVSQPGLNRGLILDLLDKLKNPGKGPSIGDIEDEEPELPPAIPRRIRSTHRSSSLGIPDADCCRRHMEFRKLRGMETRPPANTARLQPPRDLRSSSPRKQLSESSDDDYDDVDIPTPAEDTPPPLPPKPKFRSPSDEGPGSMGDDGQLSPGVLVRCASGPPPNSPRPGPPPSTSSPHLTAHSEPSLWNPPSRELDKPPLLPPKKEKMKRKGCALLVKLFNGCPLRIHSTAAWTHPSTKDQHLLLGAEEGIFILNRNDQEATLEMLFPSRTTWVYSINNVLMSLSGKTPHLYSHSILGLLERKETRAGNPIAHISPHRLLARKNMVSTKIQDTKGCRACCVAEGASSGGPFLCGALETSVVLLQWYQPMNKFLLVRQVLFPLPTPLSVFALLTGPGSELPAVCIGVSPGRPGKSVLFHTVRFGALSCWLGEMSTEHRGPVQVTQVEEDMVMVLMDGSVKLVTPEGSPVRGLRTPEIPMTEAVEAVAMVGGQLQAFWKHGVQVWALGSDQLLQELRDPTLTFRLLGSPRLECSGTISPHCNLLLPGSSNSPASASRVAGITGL

## CC(=O)N1CCC(c2ccc(C(=O)NC3=NCCN3)cc2C(F)(F)F)CC1 [BI 0054]
[1]
  residual activity: 100%
[2]
  residual activity: 100%
[3]
  residual activity: 75%
[4]
  residual activity: 100%
[5]
  residual activity: 98%
[6]
  residual activity: 87%
[7]
  residual activity: 71%
[8]
  residual activity: 98%
[9]
  residual activity: 93%
[10]
  residual activity: 98%
[11]
  residual activity: 94%
[12]
  IC50: > 10 µM (not active)
[13]
  residual activity: 92%
[14]
  residual activity: 100%
[15]
  residual activity: 85%
[16]
  residual activity: 100%
[17]
  residual activity: 100%
[18]
  inhibition: 25.3%
[19]
  residual activity: 94%
[20]
  residual activity: 76%
[21]
  residual activity: 100%
[22]
  residual activity: 76%
[23]
  residual activity: 100%
[24]
  residual activity: 100%
[25]
  inhibition: -0.162%
[26]
  inhibition: 9.64%
[27]
  residual activity: 100%
[28]
  residual activity: 100%
[29]
  residual activity: 100%
[30]
  residual activity: 80%
[31]
  residual activity: 72%
[32]
  residual activity: 89%
[33]
  residual activity: 100%
[34]
  residual activity: 100%
[35]
  residual activity: 100%
[36]
  residual activity: 100%
[37]
  residual activity: 100%
[38]
  residual activity: 100%
[39]
  residual activity: 97%
[40]
  inhibition: 14.9%
[41]
  residual activity: 100%

## CC(=O)N1CCC(c2ccc(C(=O)NC(=N)N)cc2C(F)(F)F)CC1 [BI 9627]
[1]
  residual activity: 98%
[2]
  residual activity: 100%
[3]
  residual activity: 83%
[4]
  residual activity: 100%
[5]
  residual activity: 89%
[6]
  residual activity: 76%
[7]
  residual activity: 73%
[8]
  residual activity: 100%
[9]
  residual activity: 100%
[10]
  residual activity: 100%
[11]
  residual activity: 100%
[12]
  IC50: 0.231 µM (not active)
[13]
  residual activity: 100%
[14]
  residual activity: 100%
[15]
  residual activity: 100%
[16]
  residual activity: 100%
[17]
  residual activity: 96%
[18]
  inhibition: 13.9%
[19]
  residual activity: 100%
[20]
  residual activity: 100%
[21]
  residual activity: 100%
[22]
  residual activity: 92%
[23]
  residual activity: 100%
[24]
  residual activity: 100%
[25]
  inhibition: 7.6%
[26]
  inhibition: 34%
[27]
  residual activity: 94%
[28]
  residual activity: 100%
[29]
  residual activity: 100%
[30]
  residual activity: 93%
[31]
  residual activity: 95%
[32]
  residual activity: 100%
[33]
  residual activity: 100%
[34]
  residual activity: 100%
[35]
  residual activity: 94%
[36]
  residual activity: 100%
[37]
  residual activity: 95%
[38]
  residual activity: 97%
[39]
  residual activity: 100%
[40]
  inhibition: -8.36%
[41]
  residual activity: 100%
